Tests used:
TGFBR1 mRNA [1] = experiment: remaining TGFBR1 mRNA relative to control siRNA (off-target knock-down) (fraction of control); quantification method: qPCR (R1), branched DNA (R2); higher = less knock-down
Description: (§1)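 Screen-hit siRNA duplexes (19-mer plus 3' dTdT overhang) were transiently transfected into HaCaT cells in 12-well plates. After 48 h, TGFBR1 and TGFBR2 mRNA were quantified by branched DNA assay (QuantiGene, normalised to HPRT1) or by SYBR qPCR (normalised to HPRT1/SMAD4). Values are the remaining mRNA relative to control-siRNA-transfected cells; 1-2 biological replicates.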

TGFBR2 mRNA [2] = experiment: remaining TGFBR2 mRNA relative to control siRNA (off-target knock-down) (fraction of control); quantification method: qPCR (R1), branched DNA (R2); higher = less knock-down
Description: as §1

TGFBR1 mRNA [3] = experiment: remaining TGFBR1 mRNA relative to control siRNA (off-target knock-down) (fraction of control); quantification method: qPCR; higher = less knock-down
Description: as §1

TGFBR2 mRNA [4] = experiment: remaining TGFBR2 mRNA relative to control siRNA (off-target knock-down) (fraction of control); quantification method: qPCR; higher = less knock-down
Description: as §1

| Sequence | remaining TGFBR1 mRNA (TGFBR1 mRNA [1]) | remaining TGFBR2 mRNA (TGFBR2 mRNA [2]) | remaining TGFBR1 mRNA (TGFBR1 mRNA [3]) | remaining TGFBR2 mRNA (TGFBR2 mRNA [4]) |
| --- | --- | --- | --- | --- |
| AUAGACCAUCCCCCUUCUUTT | 0.46 | 0.95 |  |  |
| UCUGUCAUAGGAUCCAAAATT |  |  | 0.74 | 0.75 |
